Measured values published in PubChem BioAssay (NCI).
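96-well plates; 48 h exposure; 5 concentrations. Endpoints by linear interpolation between flanking doses. Not reached: highest tested concentration assigned. GI50 = concentration required for 50% inhibition of growth. Definition used: TGI = concentration required for complete inhibition of growth.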

Experiments:
Assay in all cases: NCI tumour cell line growth inhibition, 48 h
786-0 renal = test system: 786-0 renal
A498 renal = test system: A498 renal
A549 NSCLC = test system: A549 NSCLC
ACHN renal = test system: ACHN renal
BT-549 breast = test system: BT-549 breast
CAKI-1 renal = test system: CAKI-1 renal
CCRF-CEM leukemia = test system: CCRF-CEM leukemia
COLO 205 colon = test system: COLO 205 colon
DU-145 prostate = test system: DU-145 prostate
EKVX NSCLC = test system: EKVX NSCLC
HCC-2998 colon = test system: HCC-2998 colon
HCT-116 colon = test system: HCT-116 colon
HCT-15 colon = test system: HCT-15 colon
HL-60(TB) leukemia = test system: HL-60(TB) leukemia
HOP-62 NSCLC = test system: HOP-62 NSCLC
HOP-92 NSCLC = test system: HOP-92 NSCLC
HS 578T breast = test system: HS 578T breast
HT29 colon = test system: HT29 colon
IGROV1 ovarian = test system: IGROV1 ovarian
K-562 leukemia = test system: K-562 leukemia
KM12 colon = test system: KM12 colon
LOX IMVI melanoma = test system: LOX IMVI melanoma
M14 melanoma = test system: M14 melanoma
MALME-3M melanoma = test system: MALME-3M melanoma
MCF7 breast = test system: MCF7 breast
MDA-MB-231 breast = test system: MDA-MB-231 breast
MDA-MB-435 = test system: MDA-MB-435
MOLT-4 leukemia = test system: MOLT-4 leukemia
NCI-H226 lung = test system: NCI-H226 lung
NCI-H23 lung = test system: NCI-H23 lung
NCI-H460 lung = test system: NCI-H460 lung
NCI-H522 lung = test system: NCI-H522 lung
NCI/ADR-RES ovarian = test system: NCI/ADR-RES ovarian
OVCAR-3 ovarian = test system: OVCAR-3 ovarian
OVCAR-4 ovarian = test system: OVCAR-4 ovarian
OVCAR-5 ovarian = test system: OVCAR-5 ovarian
OVCAR-8 ovarian = test system: OVCAR-8 ovarian
PC-3 prostate = test system: PC-3 prostate
RPMI-8226 leukemia = test system: RPMI-8226 leukemia
SF-268 CNS = test system: SF-268 CNS
SF-295 CNS = test system: SF-295 CNS
SF-539 CNS = test system: SF-539 CNS
SK-MEL-2 melanoma = test system: SK-MEL-2 melanoma
SK-MEL-28 melanoma = test system: SK-MEL-28 melanoma
SK-MEL-5 melanoma = test system: SK-MEL-5 melanoma
SN12C renal = test system: SN12C renal
SNB-19 CNS = test system: SNB-19 CNS
SNB-75 CNS = test system: SNB-75 CNS
SR leukemia = test system: SR leukemia
SW-620 colon = test system: SW-620 colon
T-47D breast = test system: T-47D breast
TK-10 renal = test system: TK-10 renal
U251 CNS = test system: U251 CNS
UACC-257 melanoma = test system: UACC-257 melanoma
UACC-62 melanoma = test system: UACC-62 melanoma
UO-31 renal = test system: UO-31 renal

COc1ccc2c(c1)/C(=N/OC(C)=O)c1c-2c(=O)[nH]c2ccccc12
GI50 (786-0 renal): 15.9 µM
TGI (786-0 renal): 43.6 µM
GI50 (A498 renal): 7.45 µM
TGI (A498 renal): 32.4 µM
GI50 (A549 NSCLC): 15.8 µM
TGI (A549 NSCLC): 31.3 µM
GI50 (ACHN renal): 14.2 µM
TGI (ACHN renal): 28.2 µM
GI50 (BT-549 breast): 7.99 µM
TGI (BT-549 breast): 24.1 µM
GI50 (CAKI-1 renal): 11.5 µM
TGI (CAKI-1 renal): 25.6 µM
GI50 (CCRF-CEM leukemia): 4.09 µM
TGI (CCRF-CEM leukemia): 23.6 µM
GI50 (COLO 205 colon): 12.2 µM
TGI (COLO 205 colon): 31.7 µM
GI50 (DU-145 prostate): 10.6 µM
TGI (DU-145 prostate): 25.3 µM
GI50 (EKVX NSCLC): 6.38 µM
TGI (EKVX NSCLC): 21.6 µM
GI50 (HCC-2998 colon): 3.29 µM
TGI (HCC-2998 colon): 13.5 µM
GI50 (HCT-116 colon): 3.35 µM
TGI (HCT-116 colon): 12.4 µM
GI50 (HCT-15 colon): 16.1 µM
TGI (HCT-15 colon): 38.1 µM
GI50 (HL-60(TB) leukemia): 1.83 µM
TGI (HL-60(TB) leukemia): 4.88 µM
GI50 (HOP-62 NSCLC): 18 µM
TGI (HOP-62 NSCLC): 34.4 µM
GI50 (HOP-92 NSCLC): 11.1 µM
TGI (HOP-92 NSCLC): 38.3 µM
GI50 (HS 578T breast): 8.88 µM
TGI (HS 578T breast): 31.4 µM
GI50 (HT29 colon): 15.6 µM
TGI (HT29 colon): 32.8 µM
GI50 (IGROV1 ovarian): 1.52 µM
TGI (IGROV1 ovarian): 11.8 µM
GI50 (K-562 leukemia): 11.3 µM
TGI (K-562 leukemia): 28.7 µM
GI50 (KM12 colon): 3.84 µM
TGI (KM12 colon): 19.6 µM
GI50 (LOX IMVI melanoma): 14.8 µM
TGI (LOX IMVI melanoma): 29.4 µM
GI50 (M14 melanoma): 13.2 µM
TGI (M14 melanoma): 27.4 µM
GI50 (MALME-3M melanoma): 13.2 µM
TGI (MALME-3M melanoma): 29.8 µM
GI50 (MCF7 breast): 66.3 µM
TGI (MCF7 breast): > 100 µM
GI50 (MDA-MB-231 breast): 13 µM
TGI (MDA-MB-231 breast): 27.3 µM
GI50 (MDA-MB-435): 17.3 µM
TGI (MDA-MB-435): 34.5 µM
GI50 (MOLT-4 leukemia): 4.28 µM
TGI (MOLT-4 leukemia): 24.6 µM
GI50 (NCI-H226 lung): 14.3 µM
TGI (NCI-H226 lung): 29.8 µM
GI50 (NCI-H23 lung): 2.34 µM
TGI (NCI-H23 lung): 16.2 µM
GI50 (NCI-H460 lung): 59 µM
TGI (NCI-H460 lung): > 100 µM
GI50 (NCI-H522 lung): 13.5 µM
TGI (NCI-H522 lung): 31.4 µM
GI50 (NCI/ADR-RES ovarian): 2.83 µM
TGI (NCI/ADR-RES ovarian): 17.9 µM
GI50 (OVCAR-3 ovarian): 16.5 µM
TGI (OVCAR-3 ovarian): 36.3 µM
GI50 (OVCAR-4 ovarian): 4.88 µM
TGI (OVCAR-4 ovarian): 21.3 µM
GI50 (OVCAR-5 ovarian): 11.5 µM
TGI (OVCAR-5 ovarian): 24.5 µM
GI50 (OVCAR-8 ovarian): 14.7 µM
TGI (OVCAR-8 ovarian): 31.8 µM
GI50 (PC-3 prostate): 11.8 µM
TGI (PC-3 prostate): 26 µM
GI50 (RPMI-8226 leukemia): 5.12 µM
TGI (RPMI-8226 leukemia): 21.8 µM
GI50 (SF-268 CNS): 25.1 µM
TGI (SF-268 CNS): > 100 µM
GI50 (SF-295 CNS): 18.1 µM
TGI (SF-295 CNS): 48 µM
GI50 (SF-539 CNS): 16.9 µM
TGI (SF-539 CNS): 46.4 µM
GI50 (SK-MEL-2 melanoma): 13.6 µM
TGI (SK-MEL-2 melanoma): 29 µM
GI50 (SK-MEL-28 melanoma): 12.7 µM
TGI (SK-MEL-28 melanoma): 26.6 µM
GI50 (SK-MEL-5 melanoma): 5.79 µM
TGI (SK-MEL-5 melanoma): 19.4 µM
GI50 (SN12C renal): 16.2 µM
TGI (SN12C renal): 31 µM
GI50 (SNB-19 CNS): 15.3 µM
TGI (SNB-19 CNS): 40.4 µM
GI50 (SNB-75 CNS): 11.1 µM
TGI (SNB-75 CNS): 25.9 µM
GI50 (SR leukemia): 6.63 µM
TGI (SR leukemia): 33.1 µM
GI50 (SW-620 colon): 14.2 µM
TGI (SW-620 colon): 30.3 µM
GI50 (T-47D breast): 3 µM
TGI (T-47D breast): 27.2 µM
GI50 (TK-10 renal): 15.2 µM
TGI (TK-10 renal): 58 µM
GI50 (U251 CNS): 15.5 µM
TGI (U251 CNS): 30.1 µM
GI50 (UACC-257 melanoma): 17.3 µM
TGI (UACC-257 melanoma): 34.2 µM
GI50 (UACC-62 melanoma): 16.6 µM
TGI (UACC-62 melanoma): 30.4 µM
GI50 (UO-31 renal): 11.1 µM
TGI (UO-31 renal): 25.2 µM
